We go through one substance from patent US5925549A, “Soluble 7-transmembrane domain G-protein-coupled receptor compositions and methods” (The Board of Trustees of the Leland Stanford Junior …, priority 1997, dated 1999).

Assay [1] concerns immature male rats (testis growth). The experiment in a line: Testis weight in immature male rats after 2 days of treatment. The format is in vivo. The note with it: 21 days of age, GnRH antagonist 50 μg/rat, testes weighed two days after initial injection, untreated 192±28 mg. The procedure: Immature male rats (21 days of age, weighing between about 45 and 50 g) were injected subcutaneously (s.c.) every 6h for a period of 2 days with 1 ml conditioned media of SF9 cells (10^8 cells equivalent/injection) containing solubilized FSH receptor fragments prepared as described above. The concentration of soluble receptor protein in the injection volume was between about 30 and 100 μg/ml. The effective dose administered every 6 hours was therefore between […].
(§1) Two days after the initial injection, the testis were weighed and testis cell apoptosis was quantitated using a 3' end-labeling method (Tapanainen,et al., 1993). The effects of FBP were also assayed using in situ analysis of specific cell types undergoing apoptosis with the "APOTAG" kit (Oncor, Gaithersburg, Md.) as previously described (Billig, et al., 1995).
Some animals were treated with a potent gonadotropin releasing hormone (GnRH) antagonist (Org30850: Acetyl-D-parachloro-Phe (AcDpCl-Phe), D-parachloro-Phe (DpCl-Phe), D-Bal, DLys, DAla-amide; (AcDpCl)Phe1 - (DpCl)Phe2 - D-Bal3 - DLys6 -DAla10(amide) (SEQ ID NO:5; D refers to D (not L) amino acids); 50 μg/rat, FIG. 5C (ANT); Decker, et al., 1992) to suppress pituitary release of LH and FSH (Decker, et al., 1992) whereas others were treated with conditioned media of SF9 cells infected with wild type baculovirus. […]

The subject of another assay is rat testis cells. The assay can be described thus: Testis cell apoptosis, DNA fragmentation by 3' end-labeling and in situ analysis (Apotag kit). Type of assay: in vivo. The note with it: immature male rats; GnRH antagonist 50 μg/rat; 2 days; FIG. 5C; comparable to FBP-treated group. As for the experimental part: as §1
Some animals were treated with a potent gonadotropin releasing hormone (GnRH) antagonist (Org30850: Acetyl-D-parachloro-Phe (AcDpCl-Phe), D-parachloro-Phe (DpCl-Phe), D-Bal, DLys, DAla-amide; (AcDpCl)Phe1 - (DpCl)Phe2 - D-Bal3 - DLys6 -DAla10(amide) (SEQ ID NO:5; D refers to D (not L) amino acids); 50 μg/rat, FIG. 5C (ANT); Decker, et al., 1992) to suppress pituitary release of LH and FSH (Decker, et al., 1992) whereas others were treated with conditioned media of SF9 cells infected with wild type baculovirus. In situ analysis of specific cell types undergoing apoptosis was performed using Apotag kit (Oncor, Gaithersburg, MD) as previously described (Billig, et al., 1995). Animal care was in accordance with institutional guidelines.

In assay [1], “Acetyl-D-parachloro-Phe (AcDpCl-Phe), D-parachloro-Phe (DpCl-Phe), D-Bal, DLys, DAla-amide; (AcDpCl)Phe1 - (DpCl)Phe2 - D-Bal3 - DLys6 -DAla10(amide) [ANT]” registered a testis weight of 140 ± 18 mg. The “apoptotic DNA fragmentation in testis cells” value in the assay with rat testis cells is on record as “increases in apoptotic DNA fragmentation”.
